{"source": "patent US8501715B2", "about": "“Oxidized lipids and uses thereof in the treatment of inflammatory diseases and disorders” (Vascular Biogenics Ltd., priority 2003, dated 2013)", "key": {"Lewis rats": {"system": "Lewis rats", "assay": "Adjuvant-induced arthritis (AIA) in Lewis rats", "assay_type": "in vivo, rat"}, "CD11c+BMDC's": {"system": "CD11c+BMDC's", "conditions": "3 hours PGN 10 μg/ml with CI-201 20 μg/ml", "procedure": "Gene Chip analysis: Mouse BMDC's were enriched for CD11c+DC (>90%) with mouse CD11c microbeads from 5-6 days cultures over MS or LS columns (Miltenyi biotech). […] RNA was prepared and used to generate cRNA. Preparation of cRNA, hybridization and scanning was done in the Weizmann Institute of Science (Rehovot, Israel) on the mouse genome 430A 2.0 array (Affymetrix, Santa Clara, Calif.)."}, "p40 [1]": {"system": "p40", "conditions": "splenic CD11b cells, IFN-γ over night, PGN 24 hours", "procedure": "(§2) Isolation of Monocytes/Macrophages: Spleens were removed and a cell suspension was prepared. Erythrocytes were depleted using red blood cell (RBC) lysis buffer (Beit Haemek, Israel). Cells were washed in phosphate buffer saline (PBS) (Beit Haemek, Israel), and incubated in 4° C. for 15 min in buffer containing PBS and 0.5% bovine serum albumin (BSA) with mouse CD11b microbeads (Miltenyi biotech, Bergisch Gladbach, Germany). Cells were then washed, resuspended in the same buffer and positively selected on a Mini-Macs separation unit through a MS column (Miltenyi biotech).\n(§3) In order to assess CI-201 effect on p40 production by macrophages, splenic CD11b cells were incubated over night with IFN-γ and then activated for 24 hours with PGN in the presence CI-201."}, "IL-27p28": {"system": "IL-27p28", "assay": "Q-PCR RNA expression in CD11c+ BMDC's: IL-27p28", "conditions": "CI-201 20 μg/ml, PGN 10 μg/ml"}, "IL-10 and IFN-γ": {"system": "IL-10 and IFN-γ", "conditions": "oral 1 mg/dose 5 times every other day", "procedure": "The effects of CI-201 treatment on cytokine expression in the targeted organ—the aorta, as well as in the spleen, liver, kidneys and small intestine were evaluated using RT-PCR as described hereinabove. Apo-E KO mice were orally administered with 1 mg/dose CI-201 or with 0.2 ml/mouse PBS, 5 times every other day. The expression of the anti-inflammatory cytokine IL-10 and the pro-inflammatory cytokine IFN-γ were determined 8 weeks after final oral administration."}, "TNF-α [2]": {"system": "TNF-α", "conditions": "IFN-γ, PGN", "procedure": "(§4) PBMC's from healthy donors were incubated over-night with IFN-γ and then activated with PGN in the presence of CI-201 for another 24 hours. Supernatants were then evaluated for p40 and TNF-α production."}, "IL-12p35": {"system": "IL-12p35", "assay": "Q-PCR RNA expression in CD11c+ BMDC's: IL-12p35", "conditions": "CI-201 20 μg/ml, PGN 10 μg/ml"}, "IL12p40 [3]": {"system": "IL12p40", "conditions": "human Mo-DC's, PGN 10 μg/ml, 24 hours", "procedure": "(§5) Supernatants were collected 24 hours following activation and the levels of p40 (FIG. 30a) and TNF-α (FIG. 30b) were measured by ELISA.\n(§6) Isolation of human monocyte derived dendritic cells (Mo-DC's): PBMCs were isolated from heparinized whole blood from healthy donors by Ficoll-Paque (Amersham, Uppsala, Sweden). Cells were incubated at 4° C. for 15 minutes in buffer containing PBS, 0.5% bovine serum albumin (BSA) and 2 mM EDTA with human CD14 microbeads (Miltenyi biotech) washed and positively selected on a Midi-Macs separation unit through LS column. The resulting cells were counted washed and seeded (10^6/ml) in medium containing RPMI-1640, L-glutamine, 3-mercaptoethanol, 10% FCS, antibiotics (Penicillin, Streptomycin), non essential amino acids, sodium pyruvate, 40 ng/ml of human GM-CSF and 20 ng/ml of human IL-4 (R&D systems, Minneapolis, Minn.). Medium was replaced every other day and cells were used for subsequent experiments on days 5-6 post culturing. Cell purity was >75% as determined by FACS for CD11c.\n(§7) Cytokine analysis: For the detection of cytokine production, supernatants from BMDC's and Mo-DC's following a 24 hour treatment were tested with Duoset ELISA kits for mouse IL12p40, TNF-α, IL-6 and human IL12p40 and TNF-α (R&D systems, Minneapolis, Minn.) respectively."}, "TNF-α [4]": {"system": "TNF-α", "conditions": "splenic CD11b cells, IFN-γ over night, PGN 24 hours", "procedure": "as §2, §3"}, "IFN-γ [5]": {"system": "IFN-γ", "assay": "RT-PCR cytokine expression in the aorta: IFN-γ", "assay_type": "in vivo", "conditions": "oral 1 mg/mouse 5 times every other day, 8 weeks after final administration", "description": "(§1) The effect of ALLE, CI-201, its corresponding acetal derivatives Et-acetal and Me-acetal (Compounds IIa and IIb, FIG. 10) and oxLDL on cytokine expression in the target organ—the aorta—was evaluated using RT-PCR as described hereinabove. […] Oral administrations took place 5 times every other day."}, "TNF-α [6]": {"system": "TNF-α", "conditions": "human Mo-DC's, PGN 10 μg/ml, 24 hours", "procedure": "as §5, §6, §7"}, "p40 [7]": {"system": "p40", "conditions": "PBMC's from two donors, IFN-γ over-night, PGN 24 hours; all tested concentrations", "procedure": "as §4"}, "IL-23p19": {"system": "IL-23p19", "conditions": "CD11c+ BMDC's, CI-201 20 μg/ml, PGN 10 μg/ml"}, "IL-1": {"system": "IL-1", "conditions": "BMDC's, PGN activation", "procedure": "Supernatant were collected 24 hours following activation and the levels of IL-6 (FIG. 3M) and IL-1 (FIG. 3N) were measured.\nIsolation of bone-marrow derived dendritic cells (BMDC's): Bone-marrow was flushed out with cold RPMI-1640 from mice femur and tibia. A cell suspension was prepared and erythrocytes were removed using red blood cell (RBC) lysis buffer (Beit Haemek, Israel). […] Cells were then washed, resuspended in the same buffer, and depleted from B and T cells on a Midi-Macs separation unit through a LD or LS column (Miltenyi biotech). The depleted cells were then counted, washed and seeded (10^6/ml) in medium containing RPMI-1640, L-glutamine, β-mercaptoethanol, 10% FCS, antibiotics (Penicillin, Streptomycin) and 20 ng/ml of mouse GM-CSF (Peprotech, Rehovot, Israel). Medium was replaced every other day and cells were used for subsequent experiments on days 5-6 post culturing."}, "IL-10 [8]": {"system": "IL-10", "conditions": "oral 0.1 μg/mouse 5 times every other day", "procedure": "(§8) Inflammatory Markers Evaluation in Serum: Serum was separated by centrifuge and stored at −70° C. Analysis of inflammatory markers was performed by ELISA (IL-10; R&D and SAA; BIOSOURCE).\n(§9) Thus, Apo-E KO mice were orally administered with 0.1 μg/mouse CI-201 or 0.2 ml/mouse PBS, 5 times every other day. Mice serum was collected before treatment (day 0), at the end of the treatment (two weeks) and two weeks thereafter (4 weeks) and the level of the inflammation markers IL-10 and Serum Amyloide A (SAA) were evaluated."}, "IL-12": {"system": "IL-12", "assay": "RT-PCR cytokine expression in the aorta: IL-12", "assay_type": "in vivo", "conditions": "oral 1 mg/mouse 5 times every other day, 8 weeks after final administration", "description": "as §1"}, "Serum Amyloide A (SAA)": {"system": "Serum Amyloide A (SAA)", "assay": "Inflammatory markers in serum (ELISA): SAA", "assay_type": "in vivo", "conditions": "oral 0.1 μg/mouse 5 times every other day; day 0, 2 and 4 weeks; control group dramatically increased", "procedure": "as §8, §9"}, "IL12p40 [9]": {"system": "IL12p40", "assay": "p40 production by activated BMDC's (ELISA)", "assay_type": "cell-based, mouse"}, "TNF-α [10]": {"system": "TNF-α", "conditions": "BMDC's, activators other than PolyI:C", "procedure": "Isolation of bone-marrow derived dendritic cells (BMDC's): Bone-marrow was flushed out with cold RPMI-1640 from mice femur and tibia. […] Cells were then washed, resuspended in the same buffer, and depleted from B and T cells on a Midi-Macs separation unit through a LD or LS column (Miltenyi biotech). The depleted cells were then counted, washed and seeded (10^6/ml) in medium containing RPMI-1640, L-glutamine, β-mercaptoethanol, 10% FCS, antibiotics (Penicillin, Streptomycin) and 20 ng/ml of mouse GM-CSF (Peprotech, Rehovot, Israel). Medium was replaced every other day and cells were used for subsequent experiments on days 5-6 post culturing.\nas §7"}, "IL-6": {"system": "IL-6", "conditions": "BMDC's, PGN activation", "procedure": "BMDC's were incubated for 1 hour with different CI-201 concentrations prior to activation with 10 μg/ml of PGN. Supernatant were collected 24 hours following activation and the levels of IL-6 (FIG. 3M) and IL-1 (FIG. 3N) were measured.\nas §7"}, "IFN-γ [11]": {"system": "IFN-γ", "conditions": "in vivo oral treatment (0.1 μg/feed C57BL/6, ovalbumin; 10 and 100 μg/mouse/feed SJL, PLP 139-151); ex vivo restimulation", "procedure": "(FIG. 26a) C57BL/6 mice were fed in alternate days from day −10 to day +10 with CI-201 (0.1 μg/feed) of PBS. On day 0, mice were immunized with ovalbumin in CFA. On day 10, draining lymph nodes were excised and cells stimulated with ovalbumin. Cells were expanded for a week and then re-stimulated for 4 hours with plate bound anti-CD3 and anti-CD28 (5 μg/ml) in the presence of monensin (2 μM) and tested for cytokine expression by intracellular staining. Results are gated on CD4+ T cells. […] Lymph nodes were collected 10 days later, stimulated ex vivo with 10 μg/ml of PLP 139-151 peptide or 0.5 μg/ml of anti CD3 and three days later supernatants were collected and tested by ELISA for cytokine production.\nLymph nodes were collected 10 days later, stimulated ex vivo with 10 μg/ml of PLP 139-151 peptide or 0.5 μg/ml of anti CD3 and three days later cytokine production from the supernatant was measured using the Duoset ELISA kit (R&D systems, Minneapolis, Minn.).\nEx-vivo ELISA and Intracellular staining: For intracellular staining, C57BL/6 were orally administered with CI-201 (0.1 μg/mouse/feed) or PBS as control, 5 times, once every other day. Dosing volume was 0.2 ml. Subsequently, mice were immunized subcutaneously in two flanks with 200 μl of emulsion containing 200 μg of ovalbumin and MT (100 μg). […]"}, "Apo-E KO mice": {"system": "Apo-E KO mice", "assay": "Assessment of atherosclerosis: lesion area in the aortic sinus", "assay_type": "in vivo, mouse"}, "IL-10 [12]": {"system": "IL-10", "assay": "RT-PCR cytokine expression in the aorta: IL-10", "assay_type": "in vivo, mouse", "description": "as §1"}, "IL-12/IL-23p40": {"system": "IL-12/IL-23p40", "assay": "Q-PCR RNA expression in CD11c+ BMDC's: IL-12/IL-23p40", "conditions": "CI-201 20 μg/ml, PGN 10 μg/ml, first 6 hours following activation, normalized to GAPDH"}}, "note": "“Also recorded” adds a separate entry of the source. Where two headings read alike, the source gives them in different places."}
{"smiles": "CCCCCCCCCCCCCCCCOC[C@H](COP(=O)([O-])OCC[N+](C)(C)C)OCCCCC(=O)O", "note": "[CI-201, 1-Hexadecyl-2-(5′-Carboxy-butyl)-sn-glycero-3-phosphocholine]", "values": [{"measurement": "arthritis development (paw swelling, arthritis score, percentage of rats with symptoms)", "setting": "Lewis rats; continuous treatment, high dose: 5 feedings before induction, then 3 times a week for about 30 days", "value": "substantially attenuated arthritis development"}, {"measurement": "paw swelling versus PBS-pretreated rats", "setting": "Lewis rats; oral pre-treatment 4.0 mg/kg 5 times every other day before AIA induction", "value": "significant decrease"}, {"measurement": "mobility", "setting": "Lewis rats; oral pre-treatment with the higher dose (4 mg/kg) before AIA induction", "value": "close to that of normal rats"}, {"measurement": "p19 expression (gene chip)", "setting": "CD11c+BMDC's", "value": "reduced p19 expression"}, {"measurement": "p40 RNA expression (gene chip)", "setting": "CD11c+BMDC's", "value": "reduced RNA expression"}, {"measurement": "p40 production levels versus control cells", "setting": "p40 [1]", "value": "no major differences"}, {"measurement": "RNA expression level of p28", "setting": "IL-27p28", "value": "did not modify"}, {"measurement": "cytokine expression in the spleen and in the small intestine versus PBS", "setting": "IL-10 and IFN-γ; 8 weeks after final administration", "value": "no differences"}, {"measurement": "cytokine expression in the liver and in kidney", "setting": "IL-10 and IFN-γ; data not shown", "value": "No change"}, {"measurement": "TNF-α production", "setting": "TNF-α [2]; PBMC's from donor I", "value": "did not impair"}, {"measurement": "TNF-α levels", "setting": "TNF-α [2]; PBMC's from donor II", "value": "modest reduction"}, {"measurement": "RNA expression level of p35", "setting": "IL-12p35", "value": "did not modify"}, {"measurement": "p40 production", "setting": "IL12p40 [3]", "value": "can inhibit p40 production"}, {"measurement": "TNF-α production levels versus control cells", "setting": "TNF-α [4]", "value": "no major differences"}, {"measurement": "IFN-γ expression in the aorta versus PBS", "setting": "IFN-γ [5]", "value": "reduced expression level"}, {"measurement": "ability to produce TNF-α", "setting": "TNF-α [6]", "value": "without altering"}, {"measurement": "p40 production", "setting": "p40 [7]", "value": "close to complete inhibition"}, {"measurement": "RNA expression level of p19", "setting": "IL-23p19", "value": "substantial inhibition"}, {"measurement": "production of IL-1", "setting": "IL-1", "value": "did not impair"}, {"measurement": "IL-10 serum level", "setting": "IL-10 [8]; 2 weeks after end of treatment (4 weeks)", "value": "decay"}, {"measurement": "IL-10 serum level", "setting": "IL-10 [8]; end of the treatment (2 weeks)", "value": "substantial increase"}, {"measurement": "IL-12 expression in the aorta versus PBS", "setting": "IL-12", "value": "reduced levels"}, {"measurement": "SAA serum levels", "setting": "Serum Amyloide A (SAA)", "value": "no alterations"}, {"measurement": "p40 production", "setting": "IL12p40 [9]; BMDC's, 1 hour pre-incubation, activation with PGN (TLR 2/6) 10 μg/ml, 24 hours", "value": "significant and dose dependent reduction"}, {"measurement": "p40 secretion", "setting": "IL12p40 [9]; BMDC's, CpG (TLR9) engagement, only 20 μg/ml of CI-201", "value": "significantly inhibit"}, {"measurement": "p40 secretion", "setting": "IL12p40 [9]; BMDC's, Fc-CD40L activation 1 μg/ml", "value": "significant reduction"}, {"measurement": "p40 production", "setting": "IL12p40 [9]; BMDC's, PolyI:C (TLR3) activation 25 μg/ml", "value": "significant and dose dependent p40 inhibition"}, {"measurement": "p40 levels", "setting": "IL12p40 [9]; BMDC's, activation with LPS (TLR4) 100 ng/ml, intermediated concentrations of CI-201", "value": "significant, but small reduction"}, {"measurement": "p40 production", "setting": "IL12p40 [9]; BMDC's, activation with Pam3CSK4 (TLR1/2) 300 ng/ml, 24 hours", "value": "significant p40 inhibition"}, {"measurement": "concentration giving maximal inhibition of p40 production (highest concentration used)", "setting": "IL12p40 [9]; activated DC's in vitro", "value": 20, "unit": "µg/mL"}, {"measurement": "production of TNF-α", "setting": "TNF-α [10]", "value": "did not impair"}, {"measurement": "production of IL-6", "setting": "IL-6", "value": "did not impair"}, {"measurement": "IFN-γ production by CD4+ T cells", "setting": "IFN-γ [11]", "value": "reduced IFN-γ production"}, {"measurement": "Aortic Sinus Lesion", "setting": "Apo-E KO mice; oral 0.1 μg/dose, 3 monthly sets of 5 administrations, 12 weeks after first feeding, 26-28 weeks old mice", "value": "228,000±25,772 μm^2"}, {"measurement": "decrease in atherosclerotic lesion in the aortic sinus as compared with the PBS treated group", "setting": "Apo-E KO mice; oral 0.1 μg/dose, P<0.05", "value": 92, "unit": "%"}, {"measurement": "Aortic Sinus Lesion", "setting": "Apo-E KO mice; oral 1 μg/dose, 3 monthly sets of 5 administrations, 12 weeks after first feeding, 26-28 weeks old mice", "value": "295,729 ± 20,909 μm^2"}, {"measurement": "Aortic Sinus Lesion", "setting": "Apo-E KO mice; oral 10 μg/dose, 3 monthly sets of 5 administrations, 12 weeks after first feeding, 26-28 weeks old mice", "value": "272,483 ± 20,505 μm^2"}, {"measurement": "decrease of the aortic sinus lesion versus PBS control", "setting": "Apo-E KO mice; oral 0.025 mg/dose, 8 weeks, P=0.051", "value": 33, "unit": "%"}, {"measurement": "most effective dose for inhibiting disease progression", "setting": "Apo-E KO mice; oral 0.1, 1 or 10 μg/dose tested", "value": 0.1, "unit": "μg/dose"}, {"measurement": "disease progression (lesion area versus base line group)", "setting": "Apo-E KO mice; oral 0.1, 1 or 10 μg/dose, 3 monthly sets", "value": "completely inhibited disease progression; also recorded: inhibited the disease progression"}, {"measurement": "atherogenesis in Apo-E KO mice, oral administration (summary of earlier examples)", "setting": "Apo-E KO mice; oral administration", "value": "substantially inhibited atherogenesis"}, {"measurement": "Aortic Sinus Lesion", "setting": "Apo-E KO mice; oral gavage 0.025 mg/dose every day (5 times a week) for 8 weeks, male 12 weeks old mice", "value": "125,192±19,824 μm^2"}, {"measurement": "IL-10 expression in the aorta, higher than control group", "setting": "IL-10 [12]; oral 0.025 mg/dose, 8 weeks", "value": 40, "unit": "%"}, {"measurement": "IL-10 expression in the aorta versus PBS", "setting": "IL-10 [12]; oral 1 mg/mouse 5 times every other day, 8 weeks after final administration", "value": "elevated levels"}, {"measurement": "p40 RNA expression, inhibition compared to control", "setting": "IL-12/IL-23p40", "value": "more than two folds"}]}
